Results: ChEMBL document CHEMBL3352532, “Microwave assisted synthesis and docking study of N-(2-oxo-2-(4-oxo-2-substituted thiazolidin-3ylamino)ethyl)benzamide derivatives as anticonvulsant agents” (Bioorg Med Chem Lett, 2014)
Calls of active or inactive are those of the source. No cut-off for these calls is given here.

Key:
[1] = system: Mus musculus; assay: Anticonvulsant activity in ip dosed Swiss CF1 mouse measured after 0.5 hrs by MES test; type: functional
[2] = system: Mus musculus; assay: Anticonvulsant activity in ip dosed Swiss CF1 mouse measured after 4 hrs by MES test; type: functional
[3] = system: Mus musculus; assay: Anticonvulsant activity in ip dosed Swiss CF1 mouse measured after 0.5 hrs by scPTZ test; type: functional
[4] = system: Mus musculus; assay: Anticonvulsant activity in ip dosed Swiss CF1 mouse measured after 4 hrs by scPTZ test; type: functional
[5] = Neurotoxicity in ip dosed Swiss CF1 mouse assessed as induction of motor impairment measured after 0.5 hrs by rotorod test; type: toxicity, organism-based; conditions: in vivo, read-out: MTD50
[6] = Neurotoxicity in ip dosed Swiss CF1 mouse assessed as induction of motor impairment measured after 4 hrs by rotorod test; type: toxicity, organism-based; conditions: in vivo, read-out: MTD50
[7] = system: Mus musculus; assay: Hepatotoxicity in Swiss CF1 mouse assessed as induction of inflammation and necrosis at 300 mg/kg, ip; type: toxicity, organism-based; design: dose 300 mg/kg, route intraperitoneal; conditions: in vivo
[8] = system: Mus musculus; assay: Behavioral activity in Swiss CF1 mouse assessed as activity score at 100 mg/kg, ip measured after 0.5 hrs post dose by actophotometry; type: organism-based; design: dose 100 mg/kg, route intraperitoneal; conditions: in vivo
[9] = system: Mus musculus; assay: Behavioral activity in Swiss CF1 mouse assessed as activity score at 100 mg/kg, ip measured after 4 hrs post dose by actophotometry; type: organism-based; design: dose 100 mg/kg, route intraperitoneal; conditions: in vivo
[10] = Lipophilicity, log P of the compound by UV spectroscopy; type: physicochemical; conditions: octanol/water
[11] = system: Mus musculus; assay: Hepatotoxicity in Swiss CF1 mouse assessed as induction of necrosis and fatty changes at 300 mg/kg, ip; type: toxicity, organism-based; design: dose 300 mg/kg, route intraperitoneal; conditions: in vivo
[12] = system: Mus musculus; assay: Hepatotoxicity in Swiss CF1 mouse assessed as induction of fatty changes and inflammations at 300 mg/kg, ip; type: toxicity, organism-based; design: dose 300 mg/kg, route intraperitoneal; conditions: in vivo

O=C(CNC(=O)c1ccccc1)NN1C(=O)CSC1c1ccccc1 (stereo not given)
MED50 [1]: 300 mg/kg | MED50 [2]: 300 mg/kg | MED50 [3]: 100 mg/kg | MED50 [4]: 300 mg/kg | TD50 at 0.5 h [5]: 100 mg/kg | TD50 at 4 h [6]: 300 mg/kg | Activity [7]: Toxic | Activity [8]: 74 | Activity [9]: 94.8 | logP [10]: 1.95

O=C1NC(=O)C(c2ccccc2)(c2ccccc2)N1 [PHENYTOIN]
MED50 [1]: 30 mg/kg | MED50 [2]: 30 mg/kg | Activity [11]: Toxic

O=C(CNC(=O)c1ccccc1)NN1C(=O)CSC1c1ccc(O)cc1 (stereo not given)
MED50 [1]: 30 mg/kg | MED50 [2]: 100 mg/kg | MED50 [3]: inactive | MED50 [4]: inactive | Activity [8]: 38.2 | Activity [9]: 99.6 | logP [10]: 1.75

COc1ccc(C2SCC(=O)N2NC(=O)CNC(=O)c2ccccc2)cc1 (stereo not given)
MED50 [1]: 300 mg/kg | MED50 [2]: inactive | MED50 [3]: 100 mg/kg | MED50 [4]: inactive | TD50 at 0.5 h [5]: 300 mg/kg | TD50 at 4 h [6]: 300 mg/kg | Activity [8]: 77.8 | Activity [9]: 80.2 | logP [10]: 1.85

O=C(CNC(=O)c1ccccc1)NN1C(=O)CSC1c1cccc(Cl)c1 (stereo not given)
MED50 [1]: 300 mg/kg | MED50 [2]: inactive | MED50 [3]: inactive | MED50 [4]: inactive | TD50 at 0.5 h [5]: 30 mg/kg | TD50 at 4 h [6]: 30 mg/kg | Activity [8]: 102.6 | Activity [9]: 108.2 | logP [10]: 2.8

CCCC(CCC)C(=O)[O-].[Na+] [VALPROATE SODIUM]
MED50 [3]: 300 mg/kg | MED50 [4]: inactive

O=C(CNC(=O)c1ccccc1)NN1C(=O)CSC1c1c[nH]c2ccccc12 (stereo not given)
MED50 [1]: 300 mg/kg | MED50 [2]: inactive | MED50 [3]: inactive | MED50 [4]: inactive | TD50 at 0.5 h [5]: 300 mg/kg | TD50 at 4 h [6]: 100 mg/kg | Activity [8]: 102.6 | Activity [9]: 120 | logP [10]: 1.7

O=C(CNC(=O)c1ccccc1)NN1C(=O)CSC1c1ccccc1Cl (stereo not given)
MED50 [1]: 100 mg/kg | MED50 [2]: 300 mg/kg | MED50 [3]: inactive | MED50 [4]: inactive | TD50 at 0.5 h [5]: 100 mg/kg | TD50 at 4 h [6]: 100 mg/kg | Activity [8]: 108.8 | Activity [9]: 110.8 | logP [10]: 2.3

O=C(CNC(=O)c1ccccc1)NN1C(=O)CSC1c1ccc(F)cc1 (stereo not given)
MED50 [1]: inactive | MED50 [2]: inactive | MED50 [3]: inactive | MED50 [4]: inactive | TD50 at 4 h [6]: 300 mg/kg | Activity [8]: 64.6 | Activity [9]: 94 | logP [10]: 2.1

O=C(CNC(=O)c1ccccc1)NN1C(=O)CSC1c1ccc(Cl)cc1 (stereo not given)
MED50 [1]: 100 mg/kg | MED50 [2]: 100 mg/kg | MED50 [3]: 300 mg/kg | MED50 [4]: inactive | Activity [8]: 103.6 | Activity [9]: 71.6 | logP [10]: 2.87

COc1ccc(C2SCC(=O)N2NC(=O)CNC(=O)c2ccccc2)cc1OC (stereo not given)
MED50 [1]: 30 mg/kg | MED50 [2]: 30 mg/kg | MED50 [3]: 100 mg/kg | MED50 [4]: 300 mg/kg | Activity [12]: Non-toxic | Activity [8]: 42 | Activity [9]: 88.6 | logP [10]: 1.85

COc1cc(C2SCC(=O)N2NC(=O)CNC(=O)c2ccccc2)cc(OC)c1OC (stereo not given)
MED50 [1]: 100 mg/kg | MED50 [2]: 300 mg/kg | MED50 [3]: 300 mg/kg | MED50 [4]: 300 mg/kg | TD50 at 0.5 h [5]: 100 mg/kg | TD50 at 4 h [6]: 100 mg/kg | Activity [8]: 92.6 | Activity [9]: 101 | logP [10]: 1.65
